Data reported in the kinase profiling compilation of Christmann-Franck et al. (2016).

Experiments:
Assay in all cases: KINOMEscan competition binding
NEK11 (human) = NEK11 (human) (UniProt Q8NG66); conditions: compound 1.0 µM
RPS6KA1 KD2 (human) = RPS6KA1 KD2 (human) (UniProt Q15418); conditions: compound 1.0 µM
MAP4K1 (human) = MAP4K1 (human) (UniProt Q92918); conditions: compound 1.0 µM
ANKK1 (human) = ANKK1 (human) (UniProt Q8NFD2); conditions: compound 1.0 µM
IKBKE (human) = IKBKE (human) (UniProt Q14164); conditions: compound 1.0 µM
PRKAA1 (human) = PRKAA1 (human) (UniProt Q13131); conditions: compound 1.0 µM
HIPK4 (human) = HIPK4 (human) (UniProt Q8NE63); conditions: compound 1.0 µM
[1] = tested on: ABL1 (human), P00519 [Y253F]; conditions: compound 1.0 µM
CAMK1G (human) = CAMK1G (human) (UniProt Q96NX5); conditions: compound 1.0 µM
DCLK2 (human) = DCLK2 (human) (UniProt Q8N568); conditions: compound 1.0 µM
PAK6 (human) = PAK6 (human) (UniProt Q9NQU5); conditions: compound 1.0 µM
[2] = tested on: RET (human), P07949 [V804M]; conditions: compound 1.0 µM
CDK11B (human) = CDK11B (human) (UniProt P21127); conditions: compound 1.0 µM
RPS6KA5 KD2 (human) = RPS6KA5 KD2 (human) (UniProt O75582); conditions: compound 1.0 µM
CSNK1E (human) = CSNK1E (human) (UniProt P49674); conditions: compound 1.0 µM
IRAK1 (human) = IRAK1 (human) (UniProt P51617); conditions: compound 1.0 µM
MAPK11 (human) = MAPK11 (human) (UniProt Q15759); conditions: compound 1.0 µM
EPHB2 (human) = EPHB2 (human) (UniProt P29323); conditions: compound 1.0 µM
BMP2K (human) = BMP2K (human) (UniProt Q9NSY1)
CAMK2G (human) = CAMK2G (human) (UniProt Q13555); conditions: compound 1.0 µM
MKNK2 (human) = MKNK2 (human) (UniProt Q9HBH9); conditions: compound 1.0 µM
GAK (human) = GAK (human) (UniProt O14976); conditions: compound 1.0 µM
MERTK (human) = MERTK (human) (UniProt Q12866); conditions: compound 1.0 µM
[3] = tested on: EGFR (human), P00533 [L861Q]; conditions: compound 1.0 µM
KIT (human) = KIT (human) (UniProt P10721); conditions: compound 1.0 µM
CHUK (human) = CHUK (human) (UniProt O15111); conditions: compound 1.0 µM
NEK2 (human) = NEK2 (human) (UniProt P51955); conditions: compound 1.0 µM
RIPK4 (human) = RIPK4 (human) (UniProt P57078); conditions: compound 1.0 µM
RPS6KA4 KD2 (human) = RPS6KA4 KD2 (human) (UniProt O75676); conditions: compound 1.0 µM
MAPK6 (human) = MAPK6 (human) (UniProt Q16659)
TIE1 (human) = TIE1 (human) (UniProt P35590); conditions: compound 1.0 µM
CSNK1A1 (human) = CSNK1A1 (human) (UniProt P48729); conditions: compound 1.0 µM
PIM2 (human) = PIM2 (human) (UniProt Q9P1W9); conditions: compound 1.0 µM
NEK1 (human) = NEK1 (human) (UniProt Q96PY6); conditions: compound 1.0 µM
OXSR1 (human) = OXSR1 (human) (UniProt O95747); conditions: compound 1.0 µM
NTRK1 (human) = NTRK1 (human) (UniProt P04629); conditions: compound 1.0 µM
[4] = tested on: FLT3 (human), P36888 [K663Q]; conditions: compound 1.0 µM
MAP3K5 (human) = MAP3K5 (human) (UniProt Q99683); conditions: compound 1.0 µM
PIP5K1C (human) = PIP5K1C (human) (UniProt O60331); conditions: compound 1.0 µM
AURKC (human) = AURKC (human) (UniProt Q9UQB9); conditions: compound 1.0 µM
SIK1 (human) = SIK1 (human) (UniProt P57059); conditions: compound 1.0 µM
MAP2K3 (human) = MAP2K3 (human) (UniProt P46734); conditions: compound 1.0 µM

Sequence of MAPK6 (human) (Q16659 whole entry, looked up): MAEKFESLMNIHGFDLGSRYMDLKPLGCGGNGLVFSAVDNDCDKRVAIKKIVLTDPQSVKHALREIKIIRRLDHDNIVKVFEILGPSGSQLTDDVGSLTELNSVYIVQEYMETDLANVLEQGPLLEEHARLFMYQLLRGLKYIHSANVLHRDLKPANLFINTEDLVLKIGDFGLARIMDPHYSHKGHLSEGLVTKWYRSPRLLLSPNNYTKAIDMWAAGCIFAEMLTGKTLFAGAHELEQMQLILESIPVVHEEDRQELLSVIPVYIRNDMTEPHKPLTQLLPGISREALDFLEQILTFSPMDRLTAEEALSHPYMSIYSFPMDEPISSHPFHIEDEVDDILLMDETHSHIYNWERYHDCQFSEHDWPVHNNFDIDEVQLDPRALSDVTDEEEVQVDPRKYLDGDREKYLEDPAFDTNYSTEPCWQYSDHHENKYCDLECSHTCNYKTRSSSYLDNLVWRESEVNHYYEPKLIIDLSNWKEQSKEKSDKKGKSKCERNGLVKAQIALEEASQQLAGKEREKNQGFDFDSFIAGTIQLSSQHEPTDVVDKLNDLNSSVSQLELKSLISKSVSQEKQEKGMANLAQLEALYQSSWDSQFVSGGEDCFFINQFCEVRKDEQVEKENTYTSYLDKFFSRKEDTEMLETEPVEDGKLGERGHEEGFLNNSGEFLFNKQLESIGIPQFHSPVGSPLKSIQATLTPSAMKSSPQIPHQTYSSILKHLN
Sequence of BMP2K (human) (Q9NSY1 whole entry, looked up): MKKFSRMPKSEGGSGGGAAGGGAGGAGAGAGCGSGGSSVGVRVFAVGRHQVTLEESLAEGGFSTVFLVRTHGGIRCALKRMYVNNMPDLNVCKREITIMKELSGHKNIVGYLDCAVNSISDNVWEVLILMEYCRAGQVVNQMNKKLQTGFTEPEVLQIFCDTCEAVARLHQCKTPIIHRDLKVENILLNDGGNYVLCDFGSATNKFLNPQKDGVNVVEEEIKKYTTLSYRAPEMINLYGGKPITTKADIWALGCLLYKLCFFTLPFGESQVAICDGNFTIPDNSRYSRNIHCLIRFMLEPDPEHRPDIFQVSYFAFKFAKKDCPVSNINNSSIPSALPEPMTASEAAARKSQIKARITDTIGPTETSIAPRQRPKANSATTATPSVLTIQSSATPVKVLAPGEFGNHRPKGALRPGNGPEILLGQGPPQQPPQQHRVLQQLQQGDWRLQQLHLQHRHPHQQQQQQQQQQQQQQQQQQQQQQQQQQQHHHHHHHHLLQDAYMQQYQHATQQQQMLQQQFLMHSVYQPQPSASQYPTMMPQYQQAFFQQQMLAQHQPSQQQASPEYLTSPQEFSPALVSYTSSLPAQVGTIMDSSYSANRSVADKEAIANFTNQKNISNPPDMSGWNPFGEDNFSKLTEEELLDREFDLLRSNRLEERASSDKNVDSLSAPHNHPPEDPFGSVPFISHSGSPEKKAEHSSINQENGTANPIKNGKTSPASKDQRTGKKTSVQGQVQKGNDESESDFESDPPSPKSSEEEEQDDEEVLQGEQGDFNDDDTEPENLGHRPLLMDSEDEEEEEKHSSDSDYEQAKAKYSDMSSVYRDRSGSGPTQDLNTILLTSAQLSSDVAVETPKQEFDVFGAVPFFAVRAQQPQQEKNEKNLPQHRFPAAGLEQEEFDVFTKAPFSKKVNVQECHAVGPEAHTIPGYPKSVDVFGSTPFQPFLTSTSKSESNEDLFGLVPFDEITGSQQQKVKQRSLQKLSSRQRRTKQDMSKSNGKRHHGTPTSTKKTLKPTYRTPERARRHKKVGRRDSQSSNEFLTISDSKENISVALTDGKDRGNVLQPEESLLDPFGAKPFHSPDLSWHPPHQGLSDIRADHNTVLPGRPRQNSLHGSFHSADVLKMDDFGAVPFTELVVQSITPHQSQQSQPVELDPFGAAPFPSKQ
Sequence of KIT (human) (P10721 whole entry, looked up): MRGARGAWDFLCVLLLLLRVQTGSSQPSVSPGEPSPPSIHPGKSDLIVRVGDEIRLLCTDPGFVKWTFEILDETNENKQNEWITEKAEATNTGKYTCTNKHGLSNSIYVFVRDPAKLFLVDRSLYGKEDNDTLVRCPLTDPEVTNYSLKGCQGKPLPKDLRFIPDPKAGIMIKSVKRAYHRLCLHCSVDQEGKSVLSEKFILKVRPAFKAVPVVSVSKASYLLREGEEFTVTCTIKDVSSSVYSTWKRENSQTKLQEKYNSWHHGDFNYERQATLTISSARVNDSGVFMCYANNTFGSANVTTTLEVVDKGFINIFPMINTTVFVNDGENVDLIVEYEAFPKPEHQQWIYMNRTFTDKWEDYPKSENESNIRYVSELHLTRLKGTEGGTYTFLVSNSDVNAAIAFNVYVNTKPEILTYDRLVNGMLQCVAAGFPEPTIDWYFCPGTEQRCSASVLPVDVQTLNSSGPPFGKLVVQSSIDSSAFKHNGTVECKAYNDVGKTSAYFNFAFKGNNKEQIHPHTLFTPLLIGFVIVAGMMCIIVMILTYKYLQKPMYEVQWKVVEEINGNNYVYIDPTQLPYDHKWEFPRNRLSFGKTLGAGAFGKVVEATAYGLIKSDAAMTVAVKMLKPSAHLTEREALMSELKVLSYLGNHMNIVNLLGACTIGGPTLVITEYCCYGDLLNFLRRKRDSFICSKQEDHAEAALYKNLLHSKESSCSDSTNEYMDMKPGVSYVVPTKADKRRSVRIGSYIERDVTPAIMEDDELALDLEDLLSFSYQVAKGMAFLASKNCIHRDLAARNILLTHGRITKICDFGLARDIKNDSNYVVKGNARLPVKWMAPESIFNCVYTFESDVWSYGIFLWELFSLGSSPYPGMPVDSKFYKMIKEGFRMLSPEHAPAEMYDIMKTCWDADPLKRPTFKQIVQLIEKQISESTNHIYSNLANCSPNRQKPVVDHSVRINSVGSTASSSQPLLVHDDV
Sequence of RPS6KA4 KD2 (human) (O75676 whole entry, looked up): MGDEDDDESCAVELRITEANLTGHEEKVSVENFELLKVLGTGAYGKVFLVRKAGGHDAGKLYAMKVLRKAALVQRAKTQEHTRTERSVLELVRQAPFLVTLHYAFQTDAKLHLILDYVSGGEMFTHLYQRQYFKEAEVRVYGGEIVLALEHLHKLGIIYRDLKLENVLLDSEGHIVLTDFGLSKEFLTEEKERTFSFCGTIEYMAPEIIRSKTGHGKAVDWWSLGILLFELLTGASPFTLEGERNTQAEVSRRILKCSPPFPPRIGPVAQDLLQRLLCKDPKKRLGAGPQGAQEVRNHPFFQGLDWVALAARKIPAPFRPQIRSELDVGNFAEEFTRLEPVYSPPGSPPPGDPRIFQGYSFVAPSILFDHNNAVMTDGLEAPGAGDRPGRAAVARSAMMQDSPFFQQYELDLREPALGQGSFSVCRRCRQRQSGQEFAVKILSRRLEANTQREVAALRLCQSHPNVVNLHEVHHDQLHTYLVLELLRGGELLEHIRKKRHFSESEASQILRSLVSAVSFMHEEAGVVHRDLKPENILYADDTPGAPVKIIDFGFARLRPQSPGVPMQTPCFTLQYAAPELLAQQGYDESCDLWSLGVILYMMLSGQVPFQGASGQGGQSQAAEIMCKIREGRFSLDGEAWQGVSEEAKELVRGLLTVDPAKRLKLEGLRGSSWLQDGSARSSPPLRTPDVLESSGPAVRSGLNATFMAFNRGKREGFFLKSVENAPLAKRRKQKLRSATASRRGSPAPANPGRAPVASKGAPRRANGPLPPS
Sequence of RET (human), P07949 [V804M] (P07949 whole entry V804M, looked up): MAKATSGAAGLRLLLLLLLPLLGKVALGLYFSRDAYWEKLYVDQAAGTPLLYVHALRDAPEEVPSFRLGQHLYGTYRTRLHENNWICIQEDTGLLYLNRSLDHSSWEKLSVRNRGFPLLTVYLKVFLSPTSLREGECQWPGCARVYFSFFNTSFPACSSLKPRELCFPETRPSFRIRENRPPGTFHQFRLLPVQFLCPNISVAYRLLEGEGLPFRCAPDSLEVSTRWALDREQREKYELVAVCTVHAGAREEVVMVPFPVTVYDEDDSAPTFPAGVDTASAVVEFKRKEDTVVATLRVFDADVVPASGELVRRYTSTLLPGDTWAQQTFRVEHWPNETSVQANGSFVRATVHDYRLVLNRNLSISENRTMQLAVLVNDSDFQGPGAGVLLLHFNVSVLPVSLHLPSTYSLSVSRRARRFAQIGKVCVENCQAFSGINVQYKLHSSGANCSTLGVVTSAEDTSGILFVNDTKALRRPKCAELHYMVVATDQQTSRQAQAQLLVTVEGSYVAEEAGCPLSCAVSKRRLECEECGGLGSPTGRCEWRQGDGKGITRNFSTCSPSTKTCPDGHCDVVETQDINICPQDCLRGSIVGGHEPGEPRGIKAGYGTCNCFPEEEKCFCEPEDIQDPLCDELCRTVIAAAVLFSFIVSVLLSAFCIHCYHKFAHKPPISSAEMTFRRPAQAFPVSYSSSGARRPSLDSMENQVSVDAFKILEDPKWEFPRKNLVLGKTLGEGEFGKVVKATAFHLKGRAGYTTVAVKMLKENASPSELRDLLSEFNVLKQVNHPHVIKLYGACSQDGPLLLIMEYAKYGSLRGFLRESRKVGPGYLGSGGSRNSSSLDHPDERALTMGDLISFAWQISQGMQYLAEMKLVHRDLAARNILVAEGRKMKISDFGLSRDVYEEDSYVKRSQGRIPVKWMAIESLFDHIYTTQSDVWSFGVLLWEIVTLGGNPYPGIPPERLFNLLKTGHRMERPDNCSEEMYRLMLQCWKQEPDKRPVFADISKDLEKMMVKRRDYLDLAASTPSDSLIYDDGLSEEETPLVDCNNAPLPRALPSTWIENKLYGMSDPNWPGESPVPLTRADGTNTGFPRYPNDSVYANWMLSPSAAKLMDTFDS
Sequence of CSNK1A1 (human) (P48729 whole entry, looked up): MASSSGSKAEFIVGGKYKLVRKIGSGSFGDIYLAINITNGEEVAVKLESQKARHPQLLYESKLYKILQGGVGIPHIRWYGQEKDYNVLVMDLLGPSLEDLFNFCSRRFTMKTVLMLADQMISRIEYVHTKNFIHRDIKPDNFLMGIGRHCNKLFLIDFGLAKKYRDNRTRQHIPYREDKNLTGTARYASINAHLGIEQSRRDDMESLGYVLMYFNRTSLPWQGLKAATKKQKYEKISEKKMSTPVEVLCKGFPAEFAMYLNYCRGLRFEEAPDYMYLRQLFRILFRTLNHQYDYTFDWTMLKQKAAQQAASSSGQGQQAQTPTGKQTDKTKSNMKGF

Compound `CN(C)C/C=C/C(=O)Nc1cccc(C(=O)Nc2ccc(Nc3nccc(-c4cccnc4)n3)cc2)c1` has a kinase still bound, per cent of control (NEK11 (human)) of 86%, a kinase still bound, per cent of control (RPS6KA1 KD2 (human)) of 82% and a kinase still bound, per cent of control (MAP4K1 (human)) of 79%. For the same compound, the kinase still bound, per cent of control (ANKK1 (human)) was 50%, the kinase still bound, per cent of control (IKBKE (human)) was 98% and the kinase still bound, per cent of control (PRKAA1 (human)) was 92%. For the same compound, the kinase still bound, per cent of control (HIPK4 (human)) was 18%, the kinase still bound, per cent of control [1] was 39% and the kinase still bound, per cent of control (CAMK1G (human)) was 78%. It also gave a kinase still bound, per cent of control (DCLK2 (human)) of 100%, a kinase still bound, per cent of control (PAK6 (human)) of 87% and a kinase still bound, per cent of control [2] of 100%. It also gave a kinase still bound, per cent of control (CDK11B (human)) of 71%, a kinase still bound, per cent of control (RPS6KA5 KD2 (human)) of 100% and a kinase still bound, per cent of control (CSNK1E (human)) of 6.8%. The kinase still bound, per cent of control (IRAK1 (human)) was 0.1%, the kinase still bound, per cent of control (MAPK11 (human)) was 95% and the kinase still bound, per cent of control (EPHB2 (human)) was 90%. It also gave a Kd (BMP2K (human)) of 190 nM, a kinase still bound, per cent of control (BMP2K (human); compound 1.0 µM) of 3.8% and a kinase still bound, per cent of control (CAMK2G (human)) of 99%. It also gave a kinase still bound, per cent of control (MKNK2 (human)) of 13%, a kinase still bound, per cent of control (GAK (human)) of 33% and a kinase still bound, per cent of control (MERTK (human)) of 100%. It also gave a kinase still bound, per cent of control [3] of 84%, a kinase still bound, per cent of control (KIT (human)) of 2.4% and a kinase still bound, per cent of control (CHUK (human)) of 53%. The kinase still bound, per cent of control (NEK2 (human)) was 86%, the kinase still bound, per cent of control (RIPK4 (human)) was 31% and the kinase still bound, per cent of control (RPS6KA4 KD2 (human)) was 65%. For the same compound, the Kd (MAPK6 (human)) was 22 nM, the kinase still bound, per cent of control (MAPK6 (human); compound 1.0 µM) was 0.4% and the kinase still bound, per cent of control (TIE1 (human)) was 100%. It also gave a kinase still bound, per cent of control (CSNK1A1 (human)) of 19%, a kinase still bound, per cent of control (PIM2 (human)) of 100% and a kinase still bound, per cent of control (NEK1 (human)) of 77%. It also gave a kinase still bound, per cent of control (OXSR1 (human)) of 96%, a kinase still bound, per cent of control (NTRK1 (human)) of 76% and a kinase still bound, per cent of control [4] of 48%. For the same compound, the kinase still bound, per cent of control (MAP3K5 (human)) was 100%, the kinase still bound, per cent of control (PIP5K1C (human)) was 22% and the kinase still bound, per cent of control (AURKC (human)) was 33%. For the same compound, the kinase still bound, per cent of control (SIK1 (human)) was 87% and the kinase still bound, per cent of control (MAP2K3 (human)) was 41%.
